From ChEMBL document CHEMBL2380212, “Synthesis, single crystal and antitumor activities of benzimidazole-quinazoline hybrids” (Bioorg Med Chem Lett, 2013)

Tests used:
[1] = n-Octanol-phosphate buffer partition coefficient, log P of the compound at pH 7.4 by shake flask method; format: physicochemical
BT-549 = test: Cytotoxicity against human BT549 cells at 10 uM after 48 hrs by SRB assay; format: functional; conditions: BT-549, 48 h, read-out: GI
T47D = test: Cytotoxicity against human T47D cells at 10 uM after 48 hrs by SRB assay; format: functional; conditions: read-out: GI
Hs-578T = test: Cytotoxicity against human Hs578T cells at 10 uM after 48 hrs by SRB assay; format: functional; conditions: read-out: GI
UO-31 = test: Cytotoxicity against human UO31 cells at 10 uM after 48 hrs by SRB assay; format: functional; conditions: UO-31, 48 h, read-out: GI
PC-3 = test: Cytotoxicity against human PC3 cells at 10 uM after 48 hrs by SRB assay; format: functional; conditions: PC-3, 48 h, read-out: GI
TK-10 = test: Cytotoxicity against human TK10 cells at 10 uM after 48 hrs by SRB assay; format: functional; conditions: TK-10, 48 h, read-out: GI
RXF 393 = test: Cytotoxicity against human RXF393 cells at 10 uM after 48 hrs by SRB assay; format: functional; conditions: RXF 393, 48 h, read-out: GI
CAKI-1 = test: Cytotoxicity against human Caki1 cells at 10 uM after 48 hrs by SRB assay; format: functional; conditions: CAKI-1, 48 h, read-out: GI
ACHN = test: Cytotoxicity against human ACHN cells at 10 uM after 48 hrs by SRB assay; format: functional; conditions: read-out: GI
786-0 = test: Cytotoxicity against human 786-0 cells at 10 uM after 48 hrs by SRB assay; format: functional; conditions: 786-0, 48 h, read-out: GI
SK-OV-3 = test: Cytotoxicity against human SKOV3 cells at 10 uM after 48 hrs by SRB assay; format: functional; conditions: SK-OV-3, 48 h, read-out: GI
OVCAR-8 = test: Cytotoxicity against human OVCAR8 cells at 10 uM after 48 hrs by SRB assay; format: functional; conditions: OVCAR-8, 48 h, read-out: GI
OVCAR-5 = test: Cytotoxicity against human OVCAR5 cells at 10 uM after 48 hrs by SRB assay; format: functional; conditions: OVCAR-5, 48 h, read-out: GI
OVCAR-3 = test: Cytotoxicity against human OVCAR3 cells at 10 uM after 48 hrs by SRB assay; format: functional; conditions: OVCAR-3, 48 h, read-out: GI
IGROV-1 = test: Cytotoxicity against human IGROV1 cells at 10 uM after 48 hrs by SRB assay; format: functional; conditions: IGROV-1, 48 h, read-out: GI
UACC-62 = test: Cytotoxicity against human UACC62 cells at 10 uM after 48 hrs by SRB assay; format: functional; conditions: UACC-62, 48 h, read-out: GI
UACC-257 = test: Cytotoxicity against human UACC257 cells at 10 uM after 48 hrs by SRB assay; format: functional; conditions: UACC-257, 48 h, read-out: GI
SK-MEL-28 = test: Cytotoxicity against human SK-MEL-28 cells at 10 uM after 48 hrs by SRB assay; format: functional; conditions: SK-MEL-28, 48 h, read-out: GI
SK-MEL-5 = test: Cytotoxicity against human SK-MEL-5 cells at 10 uM after 48 hrs by SRB assay; format: functional; conditions: SK-MEL-5, 48 h, read-out: GI
SK-MEL-2 = test: Cytotoxicity against human SK-MEL-2 cells at 10 uM after 48 hrs by SRB assay; format: functional; conditions: SK-MEL-2, 48 h, read-out: GI
M14 = test: Cytotoxicity against human M14 cells at 10 uM after 48 hrs by SRB assay; format: functional; conditions: M14, 48 h, read-out: GI
U-251 = test: Cytotoxicity against human U251 cells at 10 uM after 48 hrs by SRB assay; format: functional; conditions: U-251, 48 h, read-out: GI
SNB-75 = test: Cytotoxicity against human SNB75 cells at 10 uM after 48 hrs by SRB assay; format: functional; conditions: SNB-75, 48 h, read-out: GI
SF-295 = test: Cytotoxicity against human SF295 cells at 10 uM after 48 hrs by SRB assay; format: functional; conditions: SF-295, 48 h, read-out: GI
SW-620 = test: Cytotoxicity against human SW620 cells at 10 uM after 48 hrs by SRB assay; format: functional; conditions: SW-620, 48 h, read-out: GI
KM12 = test: Cytotoxicity against human KM12 cells at 10 uM after 48 hrs by SRB assay; format: functional; conditions: KM12, 48 h, read-out: GI
HT-29 = test: Cytotoxicity against human HT-29 cells at 10 uM after 48 hrs by SRB assay; format: functional; conditions: HT-29, 48 h, read-out: GI
HCT-15 = test: Cytotoxicity against human HCT15 cells at 10 uM after 48 hrs by SRB assay; format: functional; conditions: HCT-15, 48 h, read-out: GI
HCT-116 = test: Cytotoxicity against human HCT116 cells at 10 uM after 48 hrs by SRB assay; format: functional; conditions: HCT-116, 48 h, read-out: GI
HCC 2998 = test: Cytotoxicity against human HCC2998 cells at 10 uM after 48 hrs by SRB assay; format: functional; conditions: HCC 2998, 48 h, read-out: GI
COLO 205 = test: Cytotoxicity against human COLO205 cells at 10 uM after 48 hrs by SRB assay; format: functional; conditions: COLO 205, 48 h, read-out: GI
NCI-H460 = test: Cytotoxicity against human NCI-H460 cells at 10 uM after 48 hrs by SRB assay; format: functional; conditions: NCI-H460, 48 h, read-out: GI
NCI-H322M = test: Cytotoxicity against human NCI-H322M cells at 10 uM after 48 hrs by SRB assay; format: functional; conditions: read-out: GI
NCI-H23 = test: Cytotoxicity against human NCI-H23 cells at 10 uM after 48 hrs by SRB assay; format: functional; conditions: NCI-H23, 48 h, read-out: GI
HOP-62 = test: Cytotoxicity against human HOP62 cells at 10 uM after 48 hrs by SRB assay; format: functional; conditions: HOP-62, 48 h, read-out: GI
HOP-92 = test: Cytotoxicity against human HOP92 cells at 10 uM after 48 hrs by SRB assay; format: functional; conditions: HOP-92, 48 h, read-out: GI
[2] = Cytotoxicity against human EKVX cells at 10 uM after 48 hrs by SRB assay; format: functional; conditions: read-out: GI
SR = test: Cytotoxicity against human SR cells at 10 uM after 48 hrs by SRB assay; format: functional; conditions: read-out: GI
MOLT-4 = test: Cytotoxicity against human MOLT4 cells at 10 uM after 48 hrs by SRB assay; format: functional; conditions: MOLT-4, 48 h, read-out: GI
RPMI-8226 = test: Cytotoxicity against human RPMI8226 cells at 10 uM after 48 hrs by SRB assay; format: functional; conditions: RPMI-8226, 48 h, read-out: GI
HL-60(TB) = test: Cytotoxicity against human HL-60(TB) cells at 10 uM after 48 hrs by SRB assay; format: functional; conditions: HL-60, 48 h, read-out: GI

With C=CCn1c(C)nc2ccc(Nc3nc(N4CCCC4)nc4ccccc34)cc21 the logD [1] was 2.9, the inhibition of growth at 10 µM (BT-549) was 13.1% and the inhibition of growth at 10 µM (T47D) was < 10%. The inhibition of growth at 10 µM (Hs-578T) was 13.1%, the inhibition of growth at 10 µM (UO-31) was 31.9% and the inhibition of growth at 10 µM (PC-3) was < 10%. For the same compound, the inhibition of growth at 10 µM (TK-10) was < 10%, the inhibition of growth at 10 µM (RXF 393) was 47.6% and the inhibition of growth at 10 µM (CAKI-1) was 15%. For the same compound, the inhibition of growth at 10 µM (ACHN) was < 10%, the inhibition of growth at 10 µM (786-0) was 24% and the inhibition of growth at 10 µM (SK-OV-3) was < 10%. For the same compound, the inhibition of growth at 10 µM (OVCAR-8) was 15.9%, the inhibition of growth at 10 µM (OVCAR-5) was < 10% and the inhibition of growth at 10 µM (OVCAR-3) was < 10%. For the same compound, the inhibition of growth at 10 µM (IGROV-1) was < 10%, the inhibition of growth at 10 µM (UACC-62) was < 10% and the inhibition of growth at 10 µM (UACC-257) was < 10%. For the same compound, the inhibition of growth at 10 µM (SK-MEL-28) was 19.8%, the inhibition of growth at 10 µM (SK-MEL-5) was 37.6% and the inhibition of growth at 10 µM (SK-MEL-2) was < 10%. The inhibition of growth at 10 µM (M14) was 10.3%, the inhibition of growth at 10 µM (U-251) was < 10% and the inhibition of growth at 10 µM (SNB-75) was 16.3%. The inhibition of growth at 10 µM (SF-295) was 16.3%, the inhibition of growth at 10 µM (SW-620) was 24.9% and the inhibition of growth at 10 µM (KM12) was 29.9%. It also gave an inhibition of growth at 10 µM (HT-29) of 94.3%, an inhibition of growth at 10 µM (HCT-15) of 20.6% and an inhibition of growth at 10 µM (HCT-116) of 80.3%. For the same compound, the inhibition of growth at 10 µM (HCC 2998) was 76.6%, the inhibition of growth at 10 µM (COLO 205) was < 10% and the inhibition of growth at 10 µM (NCI-H460) was 18.7%. For the same compound, the inhibition of growth at 10 µM (NCI-H322M) was < 10%, the inhibition of growth at 10 µM (NCI-H23) was 11.3% and the inhibition of growth at 10 µM (HOP-62) was < 10%. The inhibition of growth at 10 µM (HOP-92) was 18.6%, the inhibition of growth at 10 µM [2] was < 10% and the inhibition of growth at 10 µM (SR) was 94.2%. It also gave an inhibition of growth at 10 µM (MOLT-4) of 50%, an inhibition of growth at 10 µM (RPMI-8226) of 45% and an inhibition of growth at 10 µM (HL-60(TB)) of 11.5%.
